What was measured:
[1] = Human microsomal stability assay; format: in vitro ADME; details: human liver microsomes, 1 μM test compound, 0.5 mg/mL protein, 37° C., pH 7.4
Experimental: Human Microsomal Stability Assay
Human liver microsomes (Cat.NO.: 452117, Corning, USA) were preincubated with test compound for 10 minutes at 37° C. in 100 mM potassium phosphate buffer, pH 7.4. The reactions were initiated by adding NADPH regenerating system. The final incubation mixtures contained 1 μM test compound, 0.5 mg/mL liver microsomal protein, 1 mM MgCl2, 1 mM NADP, 1 unit/mL isocitric dehydrogenase and 6 mM isocitric acid in 100 mM potassium phosphate buffer, pH 7.4. After incubation times of 0, 3, 6, 9, 15 and 30 minutes at 37° C., 300 μL of cold ACN (including internal standard) was added to 100 μL incubation mixture to terminate the reaction. Following precipitation and centrifugation, 100 uL supernatant will be taken out and added 300 uL water. The amount of compound remaining in the samples was determined by LC-MS/MS. Controls of no NADPH regenerating system at zero and 30 minutes were also prepared and analyzed. The results were categorized as: low (7.0 mL/min/kg), medium (7.0-16.2 mL/min/kg) and high (16.2-23.2 mL/min/kg).

[2] = biological target: T1, human TLR7 (Homo sapiens, UniProt Q9NYK1); assay: HEK293-Blue-hTLR-7 cells assay; format: cell-based; details: HEK293-Blue-hTLR7 cells, R848 stimulation, 20 hrs, SEAP reporter; read-out: HEK/hTLR7 IC50
T1 construct: host or cells: HEK293 (HEK-Blue hTLR7)
T1 sequence (Q9NYK1 27-1049): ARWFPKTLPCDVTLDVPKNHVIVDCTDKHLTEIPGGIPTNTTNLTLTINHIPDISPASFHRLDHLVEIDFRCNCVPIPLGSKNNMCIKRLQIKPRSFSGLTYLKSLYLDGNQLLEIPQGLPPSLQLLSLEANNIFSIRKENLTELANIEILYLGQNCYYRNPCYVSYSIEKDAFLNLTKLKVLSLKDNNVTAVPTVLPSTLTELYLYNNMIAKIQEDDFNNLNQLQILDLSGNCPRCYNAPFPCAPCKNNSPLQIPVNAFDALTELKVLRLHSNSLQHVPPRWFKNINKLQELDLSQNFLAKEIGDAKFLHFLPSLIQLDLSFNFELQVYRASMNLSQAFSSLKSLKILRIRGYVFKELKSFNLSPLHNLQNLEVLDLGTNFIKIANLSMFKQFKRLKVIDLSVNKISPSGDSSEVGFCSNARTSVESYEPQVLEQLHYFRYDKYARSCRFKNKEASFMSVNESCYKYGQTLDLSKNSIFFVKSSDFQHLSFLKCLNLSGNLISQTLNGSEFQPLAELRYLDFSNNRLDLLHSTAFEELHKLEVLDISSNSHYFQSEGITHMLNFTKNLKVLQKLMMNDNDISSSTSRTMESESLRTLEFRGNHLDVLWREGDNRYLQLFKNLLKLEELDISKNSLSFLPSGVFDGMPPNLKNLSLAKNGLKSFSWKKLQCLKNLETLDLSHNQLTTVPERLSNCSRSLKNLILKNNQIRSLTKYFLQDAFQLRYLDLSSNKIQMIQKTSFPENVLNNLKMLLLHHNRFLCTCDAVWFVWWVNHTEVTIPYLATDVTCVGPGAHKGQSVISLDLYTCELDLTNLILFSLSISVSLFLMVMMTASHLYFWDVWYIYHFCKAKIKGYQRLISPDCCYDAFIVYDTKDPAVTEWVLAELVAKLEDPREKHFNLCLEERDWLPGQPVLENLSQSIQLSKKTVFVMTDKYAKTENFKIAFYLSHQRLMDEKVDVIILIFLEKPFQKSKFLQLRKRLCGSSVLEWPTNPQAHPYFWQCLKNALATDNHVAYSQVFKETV
Description: HEK293-Blue-hTLR-7 Cells Assay:
A stable HEK293-Blue-hTLR-7 cell line was purchased from InvivoGen (Cat. #: hkb-htlr7, San Diego, Calif., USA). These cells were originally designed for studying the stimulation of human TLR7 by monitoring the activation of NF-κB. A SEAP (secreted embryonic alkaline phosphatase) reporter gene was placed under the control of the IFN-β minimal promoter fused to five NF-κB and AP-1-binding sites. The SEAP was induced by activating NF-κB and AP-1 via stimulating HEK-Blue hTLR7 cells with TLR7 ligands. Therefore the reporter expression was declined by TLR7 antagonist under the stimulation of a ligand, such as R848 (Resiquimod), for incubation of 20 hrs. The cell culture supernatant SEAP reporter activity was determined using QUANTI-Blue™ kit (Cat. #: rep-qbl, Invivogen, San Diego, Ca, USA) at a wavelength of 640 nm, a detection medium that turns purple or blue in the presence of alkaline phosphatase.
HEK293-Blue-hTLR7 cells were incubated at a density of 250,000˜450,000 cells/mL in a volume of 170 μL in a 96-well plate in Dulbecco's Modified Eagle's medium (DMEM) containing 4.5 g/L glucose, 50 U/mL penicillin, […], […], 2 mM L-glutamine, 10% (v/v) heat-inactivated fetal bovine serum with addition of 20 μL test compound in a serial dilution in the presence of final DMSO at 1% and 10 μL of 20 uM R848 in above DMEM, perform incubation under 37° C. in a CO2 incubator for 20 hrs. Then 20 μL of the supernatant from each well was incubated with 180 μL Quanti-blue substrate solution at 37° C. for 2 hrs and the absorbance was read at 620-655 nm using a spectrophotometer. The signaling pathway that TLR7 activation leads to downstream NF-κB activation has been widely accepted, and therefore similar reporter assay was modified for evaluating TLR7 antagonist.

CL (h) [1] [mL/min/kg] | IC50 [2] [nM] | Compound
6.2 | 1 | [2H]c1ccc2c(N3C[C@@H](C)N4Cc5nc(OC6CCNCC6)ccc5[C@H]4C3)ccc(C#N)c2n1 [Example 24, 2-Deuterio-5-[(2S,6R)-6-methyl-11-(4-piperidyloxy)-4,7,10-triazatricyclo[7.4.0.02,7]trideca-1(9),10,12-trien-4-yl]quinoline-8-carbonitrile]
6.2 | 3.1 | C[C@@H]1CN(c2ccc(C#N)c3ncccc23)C[C@@H]2c3cnc(N4CCNCC4)cc3CN12 [Example 2, 5-[(2S,6R)-6-methyl-11-piperazin-1-yl-4,7,12-triazatricyclo[7.4.0.02,7]trideca-1(9),10,12-trien-4-yl] quinoline-8-carbonitrile]
8.1 | 0.9 | C[C@@H]1CN(c2ccc(C#N)c3ncccc23)C[C@@H]2c3ccc(N4CCNCC4)nc3CN12 [Example 5, 5-[(2S,6R)-6-methyl-11-piperazin-1-yl-4,7,10-triazatricyclo[7.4.0.02,7]trideca-1(9),10,12-trien-4-yl]quinoline-8-carbonitrile]
6.2 | 4.9 | C[C@@H]1CN(c2ccc(C#N)c3ncccc23)C[C@@H]2c3ccc(N4CC5CNCC(C4)O5)nc3CN12 [Example 6, 5-[(2S,6R)-6-methyl-11-(9-oxa-3,7-diazabicyclo[3.3.1]nonan-3-yl)-4,7,10-triazatricyclo[7.4.0.02,7]trideca-1(9),10,12-trien-4-yl]quinoline-8-carbonitrile]
8.4 | 14.8 | N#Cc1ccc(N2CCN3Cc4nc(N5CCNCC5)ccc4[C@@H]3C2)c2cccnc12 [Example 3A, 5-[(2R)-11-piperazin-1-yl-4,7,10-triazatricyclo[7.4.0.02,7]trideca-1(9),10,12-trien-4-yl]quinoline-8-carbonitrile]
6.2 | 1.7 | [2H]c1ccc2c(N3C[C@@H](C)N4Cc5nc(N6C[C@@H]7C[C@H]6CN7)ccc5[C@H]4C3)ccc(C#N)c2n1 [Example 16, 2-Deuterio-5-[(2S,6R)-11-[(1S,4S)-2,5-diazabicyclo[2.2.1]heptan-2-yl]-6-methyl-4,7,10-triazatricyclo[7.4.0.02,7]trideca-1(9),10,12-trien-4-yl]quinoline-8-carbonitrile]
6.6 | 7 | C[C@@H]1CN(c2ccc(C#N)n3nccc23)C[C@@H]2c3ccc(N4C[C@@H]5C[C@H]4CN5)nc3CN12 [Example 21, 4-[(2S,6R)-11-[(1S,4S)-2,5-diazabicyclo[2.2.1]heptan-2-yl]-6-methyl-4,7,10-triazatricyclo[7.4.0.02,7]trideca-1(9),10,12-trien-4-yl]pyrazolo[1,5-a]pyridine-7-carbonitrile]
6.2 | 1.7 | [2H]c1ccc2c(N3C[C@@H](C)N4Cc5nc(C6CCNCC6)ccc5[C@H]4C3)ccc(C#N)c2n1 [Example 23, 2-Deuterio-5-[(2S,6R)-6-methyl-11-(4-piperidyl)-4,7,10-triazatricyclo[7.4.0.02,7]trideca-1(9),10,12-trien-4-yl]quinoline-8-carbonitrile]

— patent publication US12503471B2, “Triazatricycle compounds for the treatment of autoimmune disease” (Hoffmann-La Roche Inc., priority 2019, dated 2025)
